According to ChEMBL document CHEMBL1157806, “1-(3-Deoxy-3-fluoro-beta-d-glucopyranosyl) pyrimidine derivatives as inhibitors of glycogen phosphorylase b: Kinetic, crystallographic and modelling studies” (Bioorg Med Chem, 2010):

Assays:
[1] = Dissociation constant, pKa of the compound; assay type: physicochemical
[2] = target: T1, Glycogen phosphorylase, muscle form (Oryctolagus cuniculus, UniProt P00489); assay: Inhibition of rabbit muscle glycogen phosphorylase inactive form b
T1 sequence (P00489 whole entry): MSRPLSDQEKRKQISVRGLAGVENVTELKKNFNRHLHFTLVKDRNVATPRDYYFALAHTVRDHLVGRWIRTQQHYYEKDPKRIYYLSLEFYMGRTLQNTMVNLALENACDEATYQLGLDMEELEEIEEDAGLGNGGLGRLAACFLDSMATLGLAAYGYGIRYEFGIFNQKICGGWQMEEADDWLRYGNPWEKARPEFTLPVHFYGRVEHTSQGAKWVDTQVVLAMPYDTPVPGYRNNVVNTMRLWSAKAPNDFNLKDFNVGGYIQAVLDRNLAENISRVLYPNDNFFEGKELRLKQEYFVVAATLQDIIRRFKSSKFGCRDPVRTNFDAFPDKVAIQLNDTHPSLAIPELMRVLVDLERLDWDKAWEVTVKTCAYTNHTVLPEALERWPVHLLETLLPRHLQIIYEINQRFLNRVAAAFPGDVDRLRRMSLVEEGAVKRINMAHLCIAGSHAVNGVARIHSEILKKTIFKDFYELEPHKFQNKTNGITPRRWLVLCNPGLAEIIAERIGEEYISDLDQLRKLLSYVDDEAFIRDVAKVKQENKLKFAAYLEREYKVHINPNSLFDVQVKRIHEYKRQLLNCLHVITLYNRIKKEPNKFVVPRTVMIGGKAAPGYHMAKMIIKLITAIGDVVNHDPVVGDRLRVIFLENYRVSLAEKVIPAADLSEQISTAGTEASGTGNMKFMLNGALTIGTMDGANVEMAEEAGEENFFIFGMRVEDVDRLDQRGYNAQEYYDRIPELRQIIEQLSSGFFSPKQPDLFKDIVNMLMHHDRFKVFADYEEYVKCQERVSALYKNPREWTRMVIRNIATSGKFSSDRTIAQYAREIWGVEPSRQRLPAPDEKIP

Row | pKa [1] | Ki [2] | SMILES
1 | 7.5 |  | O=c1[nH]c(=O)n([C@@H]2O[C@H](CO)C(O)[C@H](F)C2O)cc1F (stereo partly drawn)
2 |  | 6.1 µM | O=c1ccn([C@@H]2O[C@H](CO)[C@@H](O)[C@H](O)[C@H]2O)c(=O)[nH]1
3 |  | 7.7 µM | Nc1ccn([C@@H]2O[C@H](CO)[C@@H](O)[C@H](O)[C@H]2O)c(=O)n1
